Patent US7105508B1, “Integrin receptors antagonists” (Abbott GmbH & Co. KG, priority 1999, dated 2006)

What follows are compounds tested against T1, integrin αvβ3 (Homo sapiens, UniProt P05106+P06756) (assay: Integrin αvβ3 assay (competition with vitronectin for solid phase-bound integrin αvβ3)). Details: competition with human vitronectin for binding to solid phase-bound integrin αvβ3 from human placenta; qualitative ranking only.
T1 construct: from tissue; host or cells: human placenta
Experimental: Integrin αvβ3 antagonists were identified and assessed by using an assay system based on competition between the natural integrin αvβ3 ligand vitronectin and the test substance for binding to solid phase-bound integrin αvβ3.
• Coat microtiter plates with 250 ng/ml integrin αvβ3 in 0.05 M NaHCO3 pH 9.2; 0.1 ml/well; • saturate with 1% milk powder/assay buffer; 0.3 ml/well; 0.5 h/RT • wash 3× with 0.05% Tween 20/assay buffer • test substance in 0.1% milk powder/assay buffer, 50 μl/well+0 μg/ml or 2 μg/ml human vitronectin (Boehringer Ingelheim T007) in 0.1% milk powder/assay buffer, 50 μl/well; 1 h/RT • wash 3× with 0.05% Tween 20/assay buffer • 1 μg/ml anti-human vitronectin antibody coupled to peroxidase (Kordia SAVN-APHRP) in 0.1% milk powder/assay buffer; 0.1 ml/well; 1 h/RT • wash 3× with 0.05% Tween 20/assay buffer • 0.1 ml/well peroxidase substrate • stop reaction with 0.1 ml/well 2 M H2SO4 • measure absorption at 450 nm
Integrin αvβ3: human placenta is solubilized with Nonidet, and integrin αvβ3 is affinity-purified on a GRGDSPK matrix (elution with EDTA). Contamination by integrin αIIbβ3 and human serum albumin, and the detergent and EDTA, are removed by anion exchange chromatography.
Assay buffer: 50 mM Tris pH 7.5; 100 mM NaCl; 1 mM CaCl2; 1 mM MgCl2; 10 μM MnCl2
Peroxidase substrate: mix 0.1 ml of TMB solution (42 mM TMB in DMSO) and 10 ml of substrate buffer (0.1 M Na acetate, pH 4.9) and then add 14.7 μl of 3% H2O2.
Various dilutions of the test substances are used in the assay, and the IC50 values are determined (concentration of the antagonist at which 50% of the ligand is displaced).

Structure (SMILES)	IC50 values (concentration of the antagonist at which 50% of the ligand is displaced)
CC(=O)OC1c2ccccc2C(=O)N(CC(=O)NCc2ccc(Nc3nc4ccccc4[nH]3)cc2)c2ccccc21 (stereo not shown) [Example I.B.37, 5-(2-{[4-(1H-Benzimidazol-2-ylamino)benzyl]amino}-2-oxoethyl)-6-oxo-6,11-dihydro-5H-dibenzo[b,e]azepin-11-yl acetate]	best results
CC(=O)OC1c2ccccc2C(=O)N(CC(=O)NCc2cnc(NC(=N)N)s2)c2ccccc21 (stereo not shown) [Example I.B.46, 5-(2-{[(2-{[Amino(imino)methyl]amino}-1,3-thiazol-5-yl)-methyl]amino}-2-oxoethyl)-6-oxo-6,11-dihydro-5H-dibenzo[b,e]-azepin-11-yl acetate]	best results
O=C(O)CC1c2ccccc2C(=O)N(CC(=O)NCc2ccc(NC(=O)NCc3ccccc3)cc2)c2ccccc21 (stereo not shown) [Example I.B.52, (5-{2-[(4-{[(Benzylamino)carbonyl]amino}benzyl)amino]-2-oxoethyl}-6-oxo-6,11-dihydro-5H-dibenzo[b,e]azepin-11-yl)acetic acid]	best results
CC(=O)OC1c2ccccc2C(=O)N(Cc2nc(C(=O)NCc3cc(CNc4ccccn4)cs3)cs2)c2ccccc21 (stereo not shown) [Example I.B.118, 6-Oxo-5-[(4-{[({4-[(2-pyridinylamino)methyl]-2-thienyl}methyl)-amino]carbonyl}-1,3-thiazol-2-yl)methyl]-6,11-dihydro-5H-dibenzo [b,e]azepin-11-yl acetate]	best results
